Results as given in paper PMC5522996, “Big conductance calcium‐activated potassium channel openers control spasticity without sedation” (British Journal of Pharmacology, 2017).

Tests used:
[1] = target: T1, M3 (Homo sapiens, UniProt P20309); test: Receptor binding profile of VSN16R; conditions: 10µM VSN16R
T1 construct: purchased Cerep; Chantest; DiscoveRx; Multispan; MDS Pharma Services

[2] = test system: rat mesenteric artery; test: Methoxamine‐evoked contraction of rat mesenteric artery; type: cell-based
Method: Vessels were equilibrated and set to a basal tension of 2 to 2.5 mN. The integrity of the endothelium was assessed by pre‐contracting the vessel with 10 μM methoxamine (an α1‐adrenoceptor agonist), followed by relaxation with 10 μM carbachol (a muscarinic acetylcholine receptor agonist); vessels showing relaxations of greater than 90% were designated as endothelium‐intact. When the endothelium was not required, it was removed by rubbing the intima with a human hair; carbachol‐induced relaxation of less than 10% indicated successful removal. After the test for endothelial integrity, vessels were left for 30 min and then pre‐contracted with 10 μM methoxamine. This was followed by construction of a cumulative concentration–relaxation curve to VSN16R (10 nM–1 μM). […] Most experiments were performed in matched vessels; effects of blockers or endothelial removal were compared with the control responses obtained in separate vessels of the same rats. All relaxant responses are expressed as percentage relaxation of the tone induced by methoxamine. Values are given as mean ± SEM. Statistical comparisons of concentration‐dependent responses were made by two‐way ANOVA using Prism 4 (GraphPad Software, Inc, San Diego, CA, USA).

[3] = target: T2, GPR23 (Homo sapiens, UniProt Q99677); test: Receptor binding profile of VSN16R; conditions: 10µM VSN16R
T2 construct: purchased Cerep; Chantest; DiscoveRx; Multispan; MDS Pharma Services

[4] = target: T3, Y2 (Homo sapiens, UniProt P49146); test: Receptor binding profile of VSN16R; conditions: 10µM VSN16R
T3 construct: purchased Cerep; Chantest; DiscoveRx; Multispan; MDS Pharma Services

[5] = target: T4, hERG Kv11.1 K+ channel (Homo sapiens, UniProt Q12809); test: Receptor binding profile of VSN16R; conditions: tested to 100 µM
T4 construct: purchased Cerep; Chantest; DiscoveRx; Multispan; MDS Pharma Services

[6] = target: T5, ETA (Homo sapiens, UniProt P25101); test: Receptor binding profile of VSN16R; conditions: 10µM VSN16R
T5 construct: purchased Cerep; Chantest; DiscoveRx; Multispan; MDS Pharma Services

[7] = target: T6, δ2 (Homo sapiens, UniProt P41143); test: Receptor binding profile of VSN16R; conditions: 10µM VSN16R
T6 construct: purchased Cerep; Chantest; DiscoveRx; Multispan; MDS Pharma Services

[8] = target: T7, TrK B (Homo sapiens, UniProt Q16620); test: Receptor binding profile of VSN16R; conditions: 10µM VSN16R
T7 construct: purchased Cerep; Chantest; DiscoveRx; Multispan; MDS Pharma Services

[9] = target: T8, hCB2 Receptor (CHO-K1.CNR2) (Homo sapiens, UniProt P34972); test: GTPγS Binding assay, CHO-K1.CNR2; type: biochemical; conditions: max. tested 10μM
T8 construct: expressed in transfected cells; host or cells: CHO-K1

[10] = test system: rabbits; test: Reproductive toxicology in rabbits; type: in vivo, rabbit
Method: Twenty‐eight day toxicology in rats and dogs for Investigational New Drug filing was performed by Charles Rivers (UK). Reproductive toxicology in rabbits was performed by Charles Rivers (Canada). Pharmacokinetic and/or toxicological doses ranged from 5 to 1000 mg·kg^−1 p.o. in Sprague Dawley male and female rats (n = 6‐26 per group), 50–200 mg·kg^−1 p.o. in male and female Beagle dogs (n = 6 per group) and 100–750 mg·kg^−1 p.o. in female New Zealand white rabbits (n = 9 per group). Results are expressed as mean ± SD.

[11] = target: T9, GPR6 (Homo sapiens, UniProt P46095); test: Receptor binding profile of VSN16R; conditions: 10µM VSN16R
T9 construct: purchased Cerep; Chantest; DiscoveRx; Multispan; MDS Pharma Services

[12] = target: T10, GPR55 (Homo sapiens, UniProt Q9Y2T6); test: Receptor binding profile of VSN16R
T10 construct: purchased Cerep; Chantest; DiscoveRx; Multispan; MDS Pharma Services

[13] = Phase I pharmacokinetics in healthy humans; type: in vivo, human
Method: The stability of compounds when subjected to hepatic and plasma degradation was assessed in vitro by Inpharmatica, Cambridge, UK. Compounds (1 μM) were incubated with either pooled mouse liver microsomes (0.1 mg protein mL^−1) or pooled mouse plasma at 37°C for 0, 5, 10, 20 and 40 min before termination with acetonitrile containing warfarin as an analytical internal standard. Samples were centrifuged, and the resultant supernatant analysed for parent compound. The mass responses at baseline were taken as the 100% reference values against which the disappearance of the compound was measured. The natural log of the % remaining values was used to generate linear plots of disappearance of the compounds. Half‐life values were calculated from the slope of these plots. Hepatocyte metabolism was assessed by Cyprotex, Macclesfield, and 10 μM VSN16R was incubated with primary mouse, rat, monkey (Macaque) and human hepatocytes for 1 h, and the presence of metabolites was assessed using liquid […] mass spectroscopy. The stability of VSN16R was assessed in vivo by Inpharmatica, Cyprotex and Charles Rivers, Cambridge. Blood (plasma) samples were obtained prior to and 5 min to 24 h after drug administration of 2–5 mg·kg^−1 i.v. or 5 mg·kg^−1 p.o. VSN16R into outbred mice and rats (n = 3 per time point). In addition, plasma, brain and spinal cord samples were obtained from ABH with spastic EAE. Immediately after blood collection, the brain and spinal cord were removed and then stored at −20°C prior to assay. Tissue samples were weighed, homogenized and centrifuged, and the lysates generated. Brain lysates and plasma were assayed by LC–MS methods by Inpharmatica/Charles Rivers, Cambridge, UK. This was also performed using a Waters Xevo TQ or API4000, AB Sciex mass spectrometer using spiked samples as standards. PK Solutions Software (Summit Research Services, Montrose, CO, USA), AB Sciex Analyst software combined with Thermo Fisher Scientific Watson LIMS processing and reporting software or WinNonLin pharmacokinetic or PK solutions 2.0 software (Summit Research Services, Montrose CO, USA) were used to produce PK parameters. Data are expressed as mean ± SEM. The detection limit of VSN16R was 2 ng·mL^−1 in plasma and brain and 14 ng·mL^−1 in spinal cords.

[14] = test system: Cl- channel; test: Receptor binding profile of VSN16R; set-up: species or system human; conditions: 10µM VSN16R
[15] = target: T11, A3 (Homo sapiens, UniProt P0DMS8); test: Receptor binding profile of VSN16R; conditions: 10µM VSN16R
T11 construct: purchased Cerep; Chantest; DiscoveRx; Multispan; MDS Pharma Services

[16] = test system: normal animals; test: Muscle tone in normal animals (resistance to flexion); type: in vivo, mouse; conditions: 40 mg·kg^−1 p.o.
[17] = target: CYP450 2C19 (Homo sapiens, UniProt P33261)
Description: (§1) Inhibition of binding of either 3-cyano-7-ethoxycoumarin, dibenzylfluorescein or 7-benzyoxy-4-
(§2) (trifluoromethyl) coumarin in human enzyme transfected BTI NN-5B1-4 cells or Sf9 insect cells or
(§3) inhibition of dextromethorphan substrate to CYP450 2D6 in liver microsomes.

[18] = test system: β2; test: Receptor binding profile of VSN16R; set-up: species or system human; conditions: 10µM VSN16R
[19] = target: T12, CYP450 2C8 (Homo sapiens, UniProt P10632); test: CYP450 inhibition of substrate binding; type: in vitro ADME; conditions: read-out: IC50 Inhibition of substrate binding, VSN16R
T12 construct: host or cells: BTI NN-5B1-4 or Sf9 insect cells
T12 sequence (P10632 whole entry): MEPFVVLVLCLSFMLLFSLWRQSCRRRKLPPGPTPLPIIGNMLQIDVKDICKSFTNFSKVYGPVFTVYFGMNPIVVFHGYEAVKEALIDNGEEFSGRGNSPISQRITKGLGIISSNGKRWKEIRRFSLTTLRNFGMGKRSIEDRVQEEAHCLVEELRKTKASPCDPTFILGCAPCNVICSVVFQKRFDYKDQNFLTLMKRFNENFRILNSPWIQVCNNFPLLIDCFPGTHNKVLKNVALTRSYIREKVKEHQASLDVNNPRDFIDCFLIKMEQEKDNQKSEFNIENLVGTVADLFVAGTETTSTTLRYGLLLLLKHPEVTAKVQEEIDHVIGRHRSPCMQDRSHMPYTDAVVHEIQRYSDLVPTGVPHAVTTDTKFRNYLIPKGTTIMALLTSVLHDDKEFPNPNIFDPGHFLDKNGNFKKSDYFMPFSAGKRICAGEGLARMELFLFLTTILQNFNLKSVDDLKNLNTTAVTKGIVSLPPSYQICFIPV
Description: as §1, §2, §3

T10 sequence (Q9Y2T6 whole entry): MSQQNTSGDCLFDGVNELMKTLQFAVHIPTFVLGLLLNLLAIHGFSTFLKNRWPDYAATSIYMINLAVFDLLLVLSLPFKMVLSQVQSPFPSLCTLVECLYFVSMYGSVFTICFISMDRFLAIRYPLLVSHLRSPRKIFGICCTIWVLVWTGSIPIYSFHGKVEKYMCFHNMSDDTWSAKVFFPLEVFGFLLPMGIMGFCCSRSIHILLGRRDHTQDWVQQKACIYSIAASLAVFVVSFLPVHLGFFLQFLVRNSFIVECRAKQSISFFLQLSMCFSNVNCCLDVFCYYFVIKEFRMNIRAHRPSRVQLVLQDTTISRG
T3 sequence (P49146 whole entry): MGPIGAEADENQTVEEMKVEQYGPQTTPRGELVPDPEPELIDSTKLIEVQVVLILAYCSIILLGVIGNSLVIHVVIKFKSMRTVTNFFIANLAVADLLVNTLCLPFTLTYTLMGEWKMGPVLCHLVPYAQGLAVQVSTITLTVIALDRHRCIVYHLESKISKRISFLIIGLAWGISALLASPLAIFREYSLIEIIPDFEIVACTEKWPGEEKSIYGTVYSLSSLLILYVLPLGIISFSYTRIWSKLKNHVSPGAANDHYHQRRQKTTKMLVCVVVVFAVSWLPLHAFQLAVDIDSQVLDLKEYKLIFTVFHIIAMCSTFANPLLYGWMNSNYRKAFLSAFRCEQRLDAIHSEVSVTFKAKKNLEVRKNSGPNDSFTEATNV
T1 sequence (P20309 whole entry): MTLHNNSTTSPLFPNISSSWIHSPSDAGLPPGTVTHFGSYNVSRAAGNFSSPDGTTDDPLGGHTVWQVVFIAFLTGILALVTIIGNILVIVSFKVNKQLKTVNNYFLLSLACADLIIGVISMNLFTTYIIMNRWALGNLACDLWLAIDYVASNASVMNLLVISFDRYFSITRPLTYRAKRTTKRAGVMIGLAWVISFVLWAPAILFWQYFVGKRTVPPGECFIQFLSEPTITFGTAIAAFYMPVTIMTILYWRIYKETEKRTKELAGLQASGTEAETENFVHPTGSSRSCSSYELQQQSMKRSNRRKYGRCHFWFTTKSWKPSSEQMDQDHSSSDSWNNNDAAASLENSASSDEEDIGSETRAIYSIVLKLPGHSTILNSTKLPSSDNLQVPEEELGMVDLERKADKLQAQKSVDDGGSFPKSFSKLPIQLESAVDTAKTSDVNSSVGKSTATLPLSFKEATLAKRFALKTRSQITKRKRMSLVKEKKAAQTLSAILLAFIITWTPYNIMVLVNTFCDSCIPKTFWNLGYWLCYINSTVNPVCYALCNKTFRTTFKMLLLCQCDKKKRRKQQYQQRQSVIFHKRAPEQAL
T6 sequence (P41143 whole entry): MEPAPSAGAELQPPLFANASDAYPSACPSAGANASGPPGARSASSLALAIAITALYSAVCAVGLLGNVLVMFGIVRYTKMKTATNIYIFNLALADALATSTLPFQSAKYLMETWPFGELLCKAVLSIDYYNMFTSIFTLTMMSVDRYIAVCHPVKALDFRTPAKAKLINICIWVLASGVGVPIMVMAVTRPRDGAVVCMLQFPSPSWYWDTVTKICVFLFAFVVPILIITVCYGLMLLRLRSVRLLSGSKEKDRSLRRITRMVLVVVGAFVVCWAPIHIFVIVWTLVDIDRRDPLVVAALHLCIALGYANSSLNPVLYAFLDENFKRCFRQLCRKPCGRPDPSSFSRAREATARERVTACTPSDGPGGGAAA
T9 sequence (P46095 whole entry): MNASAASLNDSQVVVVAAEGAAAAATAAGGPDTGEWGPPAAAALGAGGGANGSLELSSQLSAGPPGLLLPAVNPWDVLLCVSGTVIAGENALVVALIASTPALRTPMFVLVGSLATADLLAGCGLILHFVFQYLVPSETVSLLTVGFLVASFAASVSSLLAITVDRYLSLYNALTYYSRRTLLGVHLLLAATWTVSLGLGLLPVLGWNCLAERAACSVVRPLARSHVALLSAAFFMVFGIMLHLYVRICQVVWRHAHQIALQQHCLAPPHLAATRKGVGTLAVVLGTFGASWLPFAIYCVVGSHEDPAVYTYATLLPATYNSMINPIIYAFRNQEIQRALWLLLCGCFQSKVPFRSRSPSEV
T11 sequence (P0DMS8 whole entry): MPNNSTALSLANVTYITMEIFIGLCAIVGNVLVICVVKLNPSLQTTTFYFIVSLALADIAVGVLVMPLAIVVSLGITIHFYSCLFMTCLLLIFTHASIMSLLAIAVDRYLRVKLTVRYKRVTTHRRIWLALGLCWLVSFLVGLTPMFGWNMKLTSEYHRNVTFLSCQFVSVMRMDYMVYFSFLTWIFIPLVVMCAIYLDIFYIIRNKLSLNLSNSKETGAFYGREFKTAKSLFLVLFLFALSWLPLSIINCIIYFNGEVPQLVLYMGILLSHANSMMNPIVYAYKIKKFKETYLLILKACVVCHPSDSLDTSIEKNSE
Sequence of CYP450 2C19 (P33261 whole entry): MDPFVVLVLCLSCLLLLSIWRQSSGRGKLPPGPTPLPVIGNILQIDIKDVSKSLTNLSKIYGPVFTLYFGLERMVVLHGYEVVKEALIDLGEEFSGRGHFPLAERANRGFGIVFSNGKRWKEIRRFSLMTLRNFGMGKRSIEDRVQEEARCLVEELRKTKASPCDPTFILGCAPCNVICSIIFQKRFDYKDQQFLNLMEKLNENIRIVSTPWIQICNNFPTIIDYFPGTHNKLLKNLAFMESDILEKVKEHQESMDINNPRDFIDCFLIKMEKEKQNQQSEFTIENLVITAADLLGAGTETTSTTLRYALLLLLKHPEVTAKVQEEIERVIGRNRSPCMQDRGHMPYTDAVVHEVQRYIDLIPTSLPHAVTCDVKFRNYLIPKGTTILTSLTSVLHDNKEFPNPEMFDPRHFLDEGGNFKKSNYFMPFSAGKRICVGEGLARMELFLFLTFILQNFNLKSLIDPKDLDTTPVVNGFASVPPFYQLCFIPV
T7 sequence (Q16620 32-822): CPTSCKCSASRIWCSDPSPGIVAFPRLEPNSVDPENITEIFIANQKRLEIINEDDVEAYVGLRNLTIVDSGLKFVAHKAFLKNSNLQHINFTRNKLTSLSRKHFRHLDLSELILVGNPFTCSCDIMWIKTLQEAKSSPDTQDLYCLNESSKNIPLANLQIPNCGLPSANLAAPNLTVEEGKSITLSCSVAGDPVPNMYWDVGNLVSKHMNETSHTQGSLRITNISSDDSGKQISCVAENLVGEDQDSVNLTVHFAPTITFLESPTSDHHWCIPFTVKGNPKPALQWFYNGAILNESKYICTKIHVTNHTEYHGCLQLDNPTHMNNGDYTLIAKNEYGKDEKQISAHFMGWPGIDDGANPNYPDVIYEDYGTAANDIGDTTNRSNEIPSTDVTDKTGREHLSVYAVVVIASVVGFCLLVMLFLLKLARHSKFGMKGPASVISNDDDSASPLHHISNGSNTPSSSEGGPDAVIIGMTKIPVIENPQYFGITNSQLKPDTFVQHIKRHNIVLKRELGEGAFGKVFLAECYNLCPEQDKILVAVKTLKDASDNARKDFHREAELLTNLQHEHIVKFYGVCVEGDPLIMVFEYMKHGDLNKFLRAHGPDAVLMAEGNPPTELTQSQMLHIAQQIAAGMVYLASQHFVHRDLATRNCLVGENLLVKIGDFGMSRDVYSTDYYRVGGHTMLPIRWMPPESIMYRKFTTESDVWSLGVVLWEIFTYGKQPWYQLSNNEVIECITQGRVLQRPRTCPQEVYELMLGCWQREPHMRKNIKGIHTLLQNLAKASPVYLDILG
T8 sequence (P34972 whole entry): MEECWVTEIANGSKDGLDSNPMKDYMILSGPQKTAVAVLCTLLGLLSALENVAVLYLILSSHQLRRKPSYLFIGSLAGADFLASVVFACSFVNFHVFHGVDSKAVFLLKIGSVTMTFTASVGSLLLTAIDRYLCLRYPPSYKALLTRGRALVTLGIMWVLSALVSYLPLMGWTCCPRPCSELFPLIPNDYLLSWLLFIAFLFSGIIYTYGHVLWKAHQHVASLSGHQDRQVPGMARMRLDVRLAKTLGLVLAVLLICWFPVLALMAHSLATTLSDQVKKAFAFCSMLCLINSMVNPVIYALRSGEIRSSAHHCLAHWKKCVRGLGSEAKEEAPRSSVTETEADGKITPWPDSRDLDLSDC
T2 sequence (Q99677 whole entry): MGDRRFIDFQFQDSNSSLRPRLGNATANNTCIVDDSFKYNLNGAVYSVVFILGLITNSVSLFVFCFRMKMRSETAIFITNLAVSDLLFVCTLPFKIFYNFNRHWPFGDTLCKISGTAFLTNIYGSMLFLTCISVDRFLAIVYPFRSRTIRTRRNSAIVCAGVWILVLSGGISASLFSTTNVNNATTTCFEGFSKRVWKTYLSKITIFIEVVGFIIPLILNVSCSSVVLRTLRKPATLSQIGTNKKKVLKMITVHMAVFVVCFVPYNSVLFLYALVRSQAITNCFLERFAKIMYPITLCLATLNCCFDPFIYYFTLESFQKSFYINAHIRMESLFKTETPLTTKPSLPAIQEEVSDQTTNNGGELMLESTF

C[C@H](CO)NC(=O)c1cccc(/C=C\CCCC(=O)N(C)C)c1 [VSN16R]
Activity [1]: Negligible Activity | Relaxation in the presence of extracellular KCl ([2]; 60 mM KCl): produced no relaxation | Vasorelaxation ([2]; endothelium intact vs denuded): significant vasorelaxation in an endothelium‐dependent manner | Activity [3]: Negligible Activity | Activity [4]: Negligible Activity | Activity [5]: Negligible Activity | Activity [6]: Negligible Activity | Activity [7]: Negligible Activity | Activity [8]: Negligible Activity | Activity of VSN16R (Max. Tested) [9]: No Activity | Reproductive toxicology safe level [10]: > 500 mg·kg^−1 | Activity [11]: Negligible Activity | Activity ([12]; 10µM VSN16R): Negligible Activity | Binding to GPR55 ([12]; Multispan C1113, H113, HEK293T.GPR55 and mouse DBT.Gpr55 cell lines): does not directly bind | Effect of feeding on pharmacokinetics ([13]; 200 mg p.o., fed within 0.5 h of dosing): delayed the time of the Cmax (Tmax) and reduced Cmax | concentration at 1 week ([13]; male, human, plasma, oral, twice daily dosing of VSN16R, read-out: Steady‐state plasma levels): > 100 nM | bioavailability ([13]; male, human, plasma, po, 25 mg p.o.): 100% | Terminal elimination ([13]; over the dose range studied, 25–800 mg): 3.4 to 4.9 h | Activity [14]: Negligible Activity | Activity [15]: Negligible Activity | Change (increase) of muscle tone from baseline [16]: 9.1 ± 6.3% | IC50 [17]: > 10 µM | Activity [18]: Negligible Activity | IC50 [19]: > 10 µM
